How the values were obtained:
human patients = test: 14-day multiple dose study, 1600 mg daily: plasma triglycerides and fasting plasma glucose (Example 1); type: in vivo
Method: Twelve patients were treated with 16α-fluoro-5-androstene-17-one.
Smoking and intake of xanthine-containing beverages or food (coffee, tea, cola, chocolate) and alcohol within 24 hours, before and during the stay in the clinical research facilities were not allowed.
The human patients received 1600 mg of 16α-fluoro-5-androstene-17-one daily. Controls were set up so that they received 1600 mg of placebo. The triglyceride concentration in the plasma were measured pretreatment and at the end of the study. There was a significant triglyceride-lowering effect caused by the drug in the 14-day, multiple dose, study.
In 12 patients (excluding 2 placebos) receiving 1600 mg of 16α-fluoro-5-androsten-17-one daily, 4 patients, 3 males and one person, had pretreatment triglyceride levels>200 mg/dL. In this group of 4 patients there was a highly significant reduction in triglyceride values, whereas there was no apparent effect in the 8 patients with non-elevated triglycerides. The decline in one patient was additionally quite striking. […]
In addition, the fasting plasma glucose (FPG) levels were also measured in the patients before and after treatment. In the study, 3 of the 4 patients with elevated triglycerides had pre-treatment FPG levels>6.1 mM. The American Diabetes Association (ADA) has recently classified individuals with FPG of 6.1-6.9 mM as having impaired fasting glucose (IFG). Such individuals have 40% probability of developing ADA criteria for diabetes within 5 years.

Syndrome X patients = test: Randomized double-blind crossover trial in Syndrome X patients (Example 5c); type: in vivo, human; conditions: 600 mg twice daily, four weeks
Description: Eleven patients were enrolled in the trial. The average age was 50.2±12.8 years, and there were 10 males and 1 patient enrolled. Body weight and body mass index were 87.8±17.9 kg and 27.7±3.0 kg/m^2, respectively. All patients carried a diagnosis of dyslipidemia, including elevated triglycerides, for an average of 11.7±6.4 years.
In this randomized, double-blind, crossover study, the 11 patients underwent eligibility screening (physical exam, medical history, laboratory evaluation, PSA, TSH), followed by a six-week lead-in phase (study weeks 1-6) that included diet (AHA Step II), and discontinuation of lipid-lowering therapy. At week 4, qualifying lipid testing was performed, followed by randomization to study treatment two weeks later. Four-weeks of each of the two study treatments, fluasterone 600 mg twice daily or placebo, were then administered (weeks 7 thru 10 and 15 thru 18), separated by a 4-week washout period. At baseline, and at the end of each treatment period measurement of total serum cholesterol, triglycerides, apolipoprotein A1, and the cholesterol and triglyceride content of VLDL, LDL, and HDL was done.
The baseline triglyceride level (mg/dL) was 509±184 and the baseline HDL level (mg/dL) was 33.0±3.5.

[1] = system: male BKS.Cg-m+/+Leprdb mice; test: Fasting plasma triglyceride levels in diabetic mice (Example 9); type: in vivo
Description: Eight week old male BKS.Cg-m^+/+Lepr^db mice were obtained from Jackson Laboratories. These mice have a point mutation in the leptin receptor gene and produce a truncated receptor with impaired signaling capacity. These animals are severely insulin resistant and manifest an uncontrolled rise in blood sugar, severe depletion of the insulin-producing beta-cells of the pancreatic islets, and death by 10 months of age. The male animals also have very low plasma testosterone levels and as a consequence undeveloped seminal vesicle glands. Administration of androgens to these mice produces an increase in seminal vesicle weights similar to that seen in castrated males. Thus these animals can be used to assess androgenic potency of various compounds.
A week later, the mice were treated subcutaneously (s.c.) with 0.05 mL fluasterone (16α-fluoro-5-androsten-17-one) suspended in an Emulphor-saline vehicle to give either a dose of 5 mg/kg s.c. or 20 mg/kg s.c. or intraperitoneally (i.p.) with 0.05 mL of fluasterone suspended in an Emulphor-saline vehicle to give a dose of 5 mg/kg. The Control mice received the Emulphor-saline vehicle s.c.
All the mice were anesthetized lightly with isoflurane before treatment with fluasterone to minimize the risk of stressing the mice while giving the s.c. dose. Their food was removed the afternoon before administration with drug and the chow was to the mice the next morning immediately after treatment. All the mice had their chow removed daily and restored just after fluasterone administration. During the week, the mice had access to chow for approximately 6½ hours, while on the weekends, the mice had approximately 4½ hours of access to chow. Mice were treated daily (weekdays and weekends).
Plasma triglyceride levels were determined with a Sigma kit (334-UV ). The determination is based on the enzymatic hydrolysis of triglycerides to glycerol and free fatty acids by lipase. Glycerol is subsequently phosphorylated by ATP to produce glycerol-1-phosphate and ADP. ATP is regenerated by a pyruvate kinase-catalyzed reaction between ADP and phosphoenol pyruvate. […] NADH absorbs at 340 nm, thus the decrease in absorbance, measured at this wavelength, is directly proportional to the triglyceride concentration in the sample.
Triglyceride Reagent A (containing ATP, lactate dehydrogenase, lipase, NADH, phosphoenol pyruvate, pyruvate kinase) and Triglyceride Reagent B were reconstituted with 10 mL and 2 mL of distilled water respectively. The Sample Regent is prepared by adding 0.25 mL of Triglyceride Reagent B to 10 mL of Triglyceride Reagent A. Blank, standards (50, 100 and 200 mg/dL) and sample tubes were prepared. One mL of Sample Reagent is added to all tubes. To the Blank tube, 20 μL of distilled water is added. For each Sample tube, 20 μL of plasma is added to the tube. All tubes were incubated at room temperature for 10 minutes. The tubes were read against a Reference containing distilled water. Triglyceride concentration in the samples were calculated by subtracting the absorbance of the Sample from the absorbance of the Blank and using the following formula: […]

C[C@]12CCCCC1=CC[C@@H]1[C@@H]2CC[C@]2(C)C(=O)[C@H](F)C[C@@H]12 [fluasterone, 16α-fluoro-5-androsten-17-one]
Plasma triglyceride Conc. (human patients; Elevated Triglyceride Group, Female (1), pretreatment): 540 ± 42 (n = 2) mg/dL | Plasma triglyceride Conc. (human patients; Elevated Triglyceride Group, Female (1), treatment 1600 mg daily, 14-day study): 118 ± 19 (n = 3) mg/dL | Plasma triglyceride Conc. (human patients; Elevated Triglyceride Group, Female and Male (4), pretreatment): 385 ± 116 (n = 8) mg/dL | Plasma triglyceride Conc. (human patients; Elevated Triglyceride Group, Female and Male (4), treatment 1600 mg daily, 14-day study): 154 ± 57 (n = 11) mg/dL | Plasma triglyceride Conc. (human patients; Elevated Triglyceride Group, Male (3), pretreatment): 333 ± 75 (n = 6) mg/dL | Plasma triglyceride Conc. (human patients; Elevated Triglyceride Group, Male (3), treatment 1600 mg daily, 14-day study): 168 ± 61 (n = 8) mg/dL | Plasma triglyceride Conc. (human patients; Normal Triglyceride Group (8 patients), pretreatment): 106 ± 34 (n = 16) mg/dL | Plasma triglyceride Conc. (human patients; Normal Triglyceride Group (8 patients), treatment 1600 mg daily, 14-day study): 128 ± 77 (n = 23) mg/dL | FPG levels of individuals with IFG (human patients; pretreatment): 6.28 ± 0.33 (6) mM | FPG levels of individuals with IFG (human patients; treatment 1600 mg daily, p < 0.02): 5.63 ± 0.45 (8) (p < 0.02) mM | Change in HDL levels, least square means±S.E.M. (Syndrome X patients; baseline 33.0±3.5 mg/dL, p=0.068 vs placebo): −5.8±4.1 | Change in triglyceride levels, least square means±S.E.M. (Syndrome X patients; baseline 509±184 mg/dL, p<0.005 vs placebo): −165±76 | Fasting Plasma Triglyceride Levels ([1]; 5 mg/kg i.p., treatment day 0): 136 ± 38.4 mg/dL | Fasting Plasma Triglyceride Levels ([1]; 5 mg/kg i.p., treatment day 7, less than s.c. Control, p < 0.02): 91.1 ± 14.5^2 mg/dL | Fasting Plasma Triglyceride Levels ([1]; 5 mg/kg i.p., treatment day 14, less than s.c. Control, p < 0.01): 115 ± 14.2^4 mg/dL | Fasting Plasma Triglyceride Levels ([1]; 5 mg/kg i.p., treatment day 17): 116 ± 17.0 mg/dL | Fasting Plasma Triglyceride Levels ([1]; 5 mg/kg s.c., treatment day 0): 126 ± 20.9 mg/dL | Fasting Plasma Triglyceride Levels ([1]; 5 mg/kg s.c., treatment day 7, less than s.c. Control, p < 0.02): 115 ± 33.3^2 mg/dL | Fasting Plasma Triglyceride Levels ([1]; 5 mg/kg s.c., treatment day 14, less than s.c. Control, p < 0.01): 115 ± 15.7^4 mg/dL | Fasting Plasma Triglyceride Levels ([1]; 5 mg/kg s.c., treatment day 17): 115 ± 13.7 mg/dL | Fasting Plasma Triglyceride Levels ([1]; 200 mg/kg oral, treatment day 0): 126 ± 18.6 mg/dL | Fasting Plasma Triglyceride Levels ([1]; 200 mg/kg oral, treatment day 7, less than oral Control, p < 0.01): 107 ± 38.9^1 mg/dL | Fasting Plasma Triglyceride Levels ([1]; 200 mg/kg oral, treatment day 14, less than oral Control, p < 0.001): 95.7 ± 15.6^3 mg/dL | Fasting Plasma Triglyceride Levels ([1]; 200 mg/kg oral, treatment day 17, less than oral Control, p < 0.001): 100 ± 13.1^3 mg/dL

From patent US20040019026A1, “Compounds useful for treating hypertriglyceridemia” (priority 2000, published 2004)
